Data taken from PMC7077276 (Viruses, 2020).
Entries after “also recorded” stand apart in the source; their conditions may differ.

Assays:
[1] = test system: PCV2 dcapsid mutants bound to heparin column; assay: Heparin column chromatography of dcapsid mutants; assay type: binding, porcine circovirus type 2 (PCV2)
[2] = test system: PCV2; assay: Infectivity assay (titer, immunoblotting, qPCR, IFA); assay type: cell-based, porcine circovirus type 2 (PCV2); details: for anti-infective (antiviral) effect on PCV2: PK-15 cells, MOI = 1.0
[3] = biological target: T1, PCV2 dcapsid mutant R73A (Porcine circovirus 2, UniProt O56129, R73A); assay: Microscale thermophoresis assay (MST), dcapsid mutant R73A; assay type: binding, porcine circovirus type 2 (PCV2); details: read-out: Kd between EGCG and capsid mutant R73A
T1 construct: hexahistidine (N); made in house; host or cells: Escherichia coli BL21 (DE3)

[4] = biological target: T2, PCV2 capsid protein (dcapsid) (Porcine circovirus 2, UniProt O56129); assay: Microscale thermophoresis assay (MST), wild-type dcapsid; assay type: binding, porcine circovirus type 2 (PCV2)
T2 construct: hexahistidine (N); made in house; host or cells: Escherichia coli BL21 (DE3)

[5] = biological target: T3, PCV2 dcapsid bound to Heparin-Sepharose (Porcine circovirus 2, UniProt O56129); assay: Heparin column chromatography (competitive elution of dcapsid); assay type: binding, porcine circovirus type 2 (PCV2)
T3 construct: hexahistidine (N); made in house; host or cells: Escherichia coli BL21 (DE3)

[6] = biological target: T4, PCV2 dcapsid mutant D70A (Porcine circovirus 2, UniProt O56129, D70A); assay: Microscale thermophoresis assay (MST), dcapsid mutant D70A; assay type: binding, porcine circovirus type 2 (PCV2); details: read-out: Kd between EGCG and capsid mutant D70A
T4 construct: hexahistidine (N); made in house; host or cells: Escherichia coli BL21 (DE3)

[7] = biological target: T5, PCV2 dcapsid mutant G54A (Porcine circovirus 2, UniProt O56129, G54A); assay: Microscale thermophoresis assay (MST), dcapsid mutant G54A; assay type: binding, porcine circovirus type 2 (PCV2); details: read-out: Kd between EGCG and capsid mutant G54A
T5 construct: hexahistidine (N); made in house; host or cells: Escherichia coli BL21 (DE3)

[8] = biological target: T6, PCV2 dcapsid mutant N75A (Porcine circovirus 2, UniProt O56129, N75A); assay: Microscale thermophoresis assay (MST), dcapsid mutant N75A; assay type: binding, porcine circovirus type 2 (PCV2); details: read-out: Kd between EGCG and capsid mutant N75A
T6 construct: hexahistidine (N); made in house; host or cells: Escherichia coli BL21 (DE3)

[9] = test system: PCV2 virions; assay: Binding assay of virions to PK-15 cells (qPCR, flow cytometry); assay type: cell-based, porcine circovirus type 2 (PCV2); details: 100 μM, binding 1 h at 4 °C, MOI = 5.0
[10] = test system: PCV2; assay: Time of addition and dilution experiment; assay type: cell-based, porcine circovirus type 2 (PCV2); details: for inhibitory effect of post-infection treatment: immunoblotting at 72 hpi
[11] = test system: PCV2 mutant viruses; assay: Infectivity assay of rescued PCV2 mutant viruses; assay type: cell-based, porcine circovirus type 2 (PCV2); details: 100 μM, whole infective process, titers at 72 hpi
[12] = test system: PK-15 cells; assay: Cytotoxicity assay (CCK8); assay type: cell-based, Porcine
[13] = biological target: T7, PCV2 dcapsid mutant R51A (Porcine circovirus 2, UniProt O56129, R51A); assay: Microscale thermophoresis assay (MST), dcapsid mutant R51A; assay type: binding, porcine circovirus type 2 (PCV2); details: read-out: Kd between EGCG and capsid mutant R51A
T7 construct: hexahistidine (N); made in house; host or cells: Escherichia coli BL21 (DE3)

[14] = biological target: T8, PCV2 dcapsid mutant D78A (Porcine circovirus 2, UniProt O56129, D78A); assay: Microscale thermophoresis assay (MST), dcapsid mutant D78A; assay type: binding, porcine circovirus type 2 (PCV2); details: read-out: Kd between EGCG and capsid mutant D78A
T8 construct: hexahistidine (N); made in house; host or cells: Escherichia coli BL21 (DE3)
T8 sequence (O56129 42-233 D78A): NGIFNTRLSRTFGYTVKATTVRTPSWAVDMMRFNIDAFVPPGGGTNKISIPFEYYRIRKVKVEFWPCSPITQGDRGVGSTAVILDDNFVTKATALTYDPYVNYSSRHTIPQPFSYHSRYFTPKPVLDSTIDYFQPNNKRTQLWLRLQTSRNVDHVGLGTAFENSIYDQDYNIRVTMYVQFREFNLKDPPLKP

T3 sequence (O56129 42-233): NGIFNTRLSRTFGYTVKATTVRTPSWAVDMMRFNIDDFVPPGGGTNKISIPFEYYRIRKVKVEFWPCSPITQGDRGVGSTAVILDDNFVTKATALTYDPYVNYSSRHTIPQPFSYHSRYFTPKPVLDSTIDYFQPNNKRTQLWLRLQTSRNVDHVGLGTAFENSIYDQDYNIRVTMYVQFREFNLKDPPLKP
T2 sequence (O56129 42-233): as above
T6 sequence (O56129 42-233 N75A): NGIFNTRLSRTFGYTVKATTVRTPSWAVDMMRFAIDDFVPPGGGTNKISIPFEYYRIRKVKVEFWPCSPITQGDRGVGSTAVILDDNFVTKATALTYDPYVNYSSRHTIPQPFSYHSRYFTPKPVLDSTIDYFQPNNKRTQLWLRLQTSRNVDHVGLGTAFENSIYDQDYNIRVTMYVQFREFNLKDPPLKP
T1 sequence (O56129 42-233 R73A): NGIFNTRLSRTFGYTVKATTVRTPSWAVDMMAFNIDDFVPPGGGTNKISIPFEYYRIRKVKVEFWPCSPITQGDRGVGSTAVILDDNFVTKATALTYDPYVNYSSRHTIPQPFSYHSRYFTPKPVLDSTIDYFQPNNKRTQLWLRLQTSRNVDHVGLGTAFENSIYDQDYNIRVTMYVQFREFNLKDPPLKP
T4 sequence (O56129 42-233 D70A): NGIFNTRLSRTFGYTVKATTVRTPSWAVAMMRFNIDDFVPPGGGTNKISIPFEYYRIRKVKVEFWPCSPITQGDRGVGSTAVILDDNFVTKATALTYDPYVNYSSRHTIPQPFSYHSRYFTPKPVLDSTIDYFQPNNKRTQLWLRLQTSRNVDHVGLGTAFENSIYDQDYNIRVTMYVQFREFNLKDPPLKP
T5 sequence (O56129 42-233 G54A): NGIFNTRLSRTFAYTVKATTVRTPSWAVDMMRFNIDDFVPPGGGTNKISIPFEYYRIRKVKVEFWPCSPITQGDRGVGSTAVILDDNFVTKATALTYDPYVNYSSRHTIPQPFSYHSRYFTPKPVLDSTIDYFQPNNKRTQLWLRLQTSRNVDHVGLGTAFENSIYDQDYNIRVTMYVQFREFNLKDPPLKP
T7 sequence (O56129 42-233 R51A): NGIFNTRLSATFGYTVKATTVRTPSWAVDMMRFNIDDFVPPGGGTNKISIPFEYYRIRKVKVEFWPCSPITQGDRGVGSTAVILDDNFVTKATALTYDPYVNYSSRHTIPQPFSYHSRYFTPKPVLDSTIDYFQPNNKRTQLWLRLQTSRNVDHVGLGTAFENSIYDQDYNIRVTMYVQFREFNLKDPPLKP

## heparin [reference compound]
[1]; 0.5 mg/mL heparin
  eluted level of R51A and R73A mutants: most significant eluted reduction

## O=C(O[C@@H]1Cc2c(O)cc(O)cc2O[C@@H]1c1cc(O)c(O)c(O)c1)c1cc(O)c(O)c(O)c1 [EGCG, Epigallocatechin gallate]
[2]; 10 μM, 72 hpi
  inhibitory effect of PCV2 infection (immunoblotting, qPCR): still detectable
[2]; 100 μM, 72 hpi
  viral capsid protein expression (immunoblotting): reduced level
  viral genome copy number (qPCR): reduction
[2]; 100 μM, MOI = 1.0, vs. without treatment
  quantity of PCV2 infected cells (IFA): obviously lower
[2]; 100 μM
  anti-infective (antiviral) effect on PCV2: exhibited an inhibitory effect
[2]; 100 μM, whole infective process, various time points, vs. without treatment
  virus titer of PCV2 infected cells: significant decrease
[3]
  Kd: 971 ± 9.54 µM
[4]
  Kd: 98 ± 4.76 µM
[5]; competitor 0.05 mg/mL
  dcapsid protein fraction eluted from heparin column: 42.33 ± 3.52%
[5]; competitor 0.5 mg/mL
  dcapsid protein fraction eluted from heparin column: 90.00 ± 5.29%
[6]
  Kd: 863.7 ± 7.23 µM
[7]
  Kd: 99.3 ± 9.29 µM
[8]
  Kd: 164 ± 5.29 µM
[9]
  bound PCV2 particles (qRT-PCR): decrease significantly
[9]; untreated ~70%
  proportion of PCV2-attached cells (flow cytometry): ~ 55%
[1]; 0.5 mg/mL EGCG, especially D70A and D78A
  eluted level of R51A, D70A, R73A and D78A mutants: remarkably reduced
[10]; 100 μM for 4 h or 12 h after PCV2 infection
  inhibitory effect of post-infection treatment: significant inhibitory effect could not be detected
[10]; 100 μM for 24 h after PCV2 infection
  inhibitory effect of post-infection treatment: only a slight effect
[10]; cells pre-exposed 60 min at 37 °C, then infected, 72 hpi, immunoblotting, qPCR, titer
  inhibitory effect, pre-treated cells group: inhibitory effect could not be detected
[10]; virions pretreated with 100 μM, diluted 10-fold before inoculation, immunoblotting, qPCR, titer
  antiviral effect in dilution assay: antiviral effect could still be detected
[10]; virus premixed with 10 μM, 72 hpi
  antiviral effect, pre-treated virions group: non-sensitive
[10]; virus premixed with 100 μM, 72 hpi
  antiviral effect, pre-treated virions group: prominent antiviral effect
[11]
  antiviral effect on PCV2 (D70A) and PCV2 (D78A): could not be detected
  antiviral effect on PCV2 (G54A), PCV2 (N75A), PCV2 (WT) and PCV2 (A135A): could inhibit the infectivity
[12]; 100 μM, 24 h, 72 h and 120 h
  cytotoxicity to PK-15 cells: did not generate significant cytotoxicity; also recorded: without causing significant toxicity
[12]; 200 μM
  cytotoxicity to PK-15 cells: could produce cytotoxicity
[13]
  Kd: 591 ± 5.57 µM
[14]
  Kd: 1061 ± 8.08 µM

## Oc1cc(O)c2c(c1)O[C@H](c1ccc(O)c(O)c1)[C@H](O)C2 [EC, epicatechin, reference compound]
[2]; 100 μM
  anti-infective (antiviral) effect on PCV2: no considerable anti-infective effect; also recorded: did not exert an antiviral effect
[4]
  Kd: 951.3 ± 6.81 µM
[4]; MST, ratio of Kd
  lower affinity to capsid than EGCG: 10 fold
[5]; competitor 0.05 mg/mL
  dcapsid protein fraction eluted from heparin column: 10.33 ± 4.50%
